Assay results as given in ChEMBL document CHEMBL1137872, “Potent and selective P2-P3 ketoamide inhibitors of cathepsin K with good pharmacokinetic properties via favorable P1', P1, and/or P3 substitutions” (Bioorg Med Chem Lett, 2004).
Values after ≈ are worked out from the molar mass of the structure shown.

Legend:
[1] = target: T1, Cathepsin K (Homo sapiens, UniProt P43235); assay: Inhibition of 10 uM Cbz-Phe-Arg-AMC binding to human cathepsin K in fluorescence assay
T1 sequence (P43235 whole entry): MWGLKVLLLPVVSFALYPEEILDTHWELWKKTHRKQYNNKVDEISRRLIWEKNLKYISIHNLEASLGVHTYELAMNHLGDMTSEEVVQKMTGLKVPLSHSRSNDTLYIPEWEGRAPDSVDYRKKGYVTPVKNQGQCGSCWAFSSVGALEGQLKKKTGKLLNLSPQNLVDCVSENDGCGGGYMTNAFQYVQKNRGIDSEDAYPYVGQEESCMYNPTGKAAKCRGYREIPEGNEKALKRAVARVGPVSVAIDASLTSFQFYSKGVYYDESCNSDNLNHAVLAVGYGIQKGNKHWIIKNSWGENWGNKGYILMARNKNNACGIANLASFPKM

[2] = target: T2, Pro-cathepsin H (Homo sapiens, UniProt P09668); assay: Inhibition of 50 uM L-Arg-beta-naphthalamide binding to human cathepsin H in fluorescence assay
T2 sequence (P09668 whole entry): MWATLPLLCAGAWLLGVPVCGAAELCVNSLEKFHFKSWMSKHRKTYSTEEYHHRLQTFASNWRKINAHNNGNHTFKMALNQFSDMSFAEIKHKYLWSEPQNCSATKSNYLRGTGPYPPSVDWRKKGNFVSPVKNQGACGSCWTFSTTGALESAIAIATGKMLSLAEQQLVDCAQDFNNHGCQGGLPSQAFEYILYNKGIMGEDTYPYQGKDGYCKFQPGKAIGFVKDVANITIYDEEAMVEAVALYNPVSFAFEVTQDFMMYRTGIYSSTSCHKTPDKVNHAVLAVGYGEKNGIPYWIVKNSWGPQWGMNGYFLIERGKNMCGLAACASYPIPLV

[3] = target: Cathepsin S (Homo sapiens, UniProt P25774); assay: Inhibition of 10 uM Cbz-Val-Val-Arg-AMC binding to human cathepsin S in fluorescence assay
[4] = target: Cathepsin B (Homo sapiens, UniProt P07858); assay: Inhibition of 10 uM Cbz-Phe-Arg-AMC binding to human cathepsin B in fluorescence assay
[5] = target: T3, Cathepsin (L and K) (Homo sapiens) (UniProt P43235+P07711); assay: (§1) Relative binding to human cathepsins L and K; format: protein assay
[6] = target: Cathepsin (S and K) (Homo sapiens) (UniProt P25774+P43235); assay: Relative binding to human cathepsins S and K; format: protein assay
[7] = target: Procathepsin L (Homo sapiens, UniProt P07711); assay: Inhibition of 5 uM Cbz-Phe-Arg-AMC human cathepsin L in fluorescence assay
[8] = target: Cathepsin (H and K) (Homo sapiens) (UniProt P09668+P43235); assay: Relative binding affinity for human cathepsins H and K; format: protein assay
[9] = target: T4, Pro-cathepsin H (Homo sapiens) (UniProt P09668); assay: Relative binding to human cathepsins H and K
T4 sequence (whole entry): T2 sequence (P09668 whole entry)

[10] = Equilibrium solubility in fasted state-simulated intestinal fluid was determined […]; format: ADME, Rattus norvegicus; details: read-out: FS-SIF
[11] = Steady state volume of distribution in rats; format: ADME, organism-based; details: rat, in vivo; read-out: Vss
[12] = Total clearance in rats; format: ADME, organism-based; details: rat, in vivo
[13] = Apparent permeability coefficient for apical to basolateral flux was determined by Madin-Darby canine kidney cell monolayer transport assay; format: ADME, cell-based, Canis lupus familiaris; details: dog, MDCK
[14] = Oral bioavailability in rat; format: ADME, organism-based; details: in vivo
[15] = Terminal half-life was determined in rats upon intravenous administration as a solution in 40% hydroxypropyl-beta-cyclodextrin, pH = 5.1; format: ADME, organism-based; details: rat, in vivo
[16] = target: T3, Cathepsin (L and K) (Homo sapiens); assay: as §1; format: protein assay; remark: listed apart in the source
[17] = Terminal half-life was determined in rats upon intravenous administration as a solution in 30% hydroxypropyl-beta-cyclodextrin, pH = 5.1; format: ADME, organism-based; details: rat, in vivo
[18] = Terminal half-life was determined in rats upon intravenous administration as a solution in 30% hydroxypropyl-beta-cyclodextrin, pH = 3.5; format: ADME, organism-based; details: rat, in vivo

Sequence of Cathepsin S (P25774 whole entry): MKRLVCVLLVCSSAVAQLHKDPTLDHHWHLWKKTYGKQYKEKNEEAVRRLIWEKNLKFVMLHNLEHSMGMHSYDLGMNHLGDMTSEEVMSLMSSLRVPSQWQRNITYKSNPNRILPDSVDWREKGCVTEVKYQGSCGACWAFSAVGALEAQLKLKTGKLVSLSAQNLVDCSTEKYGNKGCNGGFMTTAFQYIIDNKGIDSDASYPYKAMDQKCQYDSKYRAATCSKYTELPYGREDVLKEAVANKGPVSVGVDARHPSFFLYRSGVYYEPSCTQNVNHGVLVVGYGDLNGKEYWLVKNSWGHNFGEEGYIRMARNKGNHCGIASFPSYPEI
Sequence of Procathepsin L (P07711 whole entry): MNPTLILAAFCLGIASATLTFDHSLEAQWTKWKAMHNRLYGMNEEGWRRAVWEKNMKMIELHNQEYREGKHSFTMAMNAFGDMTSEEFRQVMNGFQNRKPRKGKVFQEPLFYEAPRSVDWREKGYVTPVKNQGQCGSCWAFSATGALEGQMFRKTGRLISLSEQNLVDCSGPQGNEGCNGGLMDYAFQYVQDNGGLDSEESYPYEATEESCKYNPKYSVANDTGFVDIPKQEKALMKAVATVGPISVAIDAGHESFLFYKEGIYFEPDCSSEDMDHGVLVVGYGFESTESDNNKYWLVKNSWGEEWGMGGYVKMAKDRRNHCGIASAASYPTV
T3 sequence (P07711 whole entry, looked up, one chain of several): as the sequence (P07711 whole entry) above

Compound	IC50 [1] [µM]	IC50 [2] [µM]	IC50 [3] [µM]	IC50 [4] [µM]	Ratio [5]	Ratio [6]	IC50 [7] [µM]	Ratio [8]	Ratio [9]	solubility thermodynamic [10] [µg/mL]	Vd [11] [L/kg]	clearance [12] [mL/min/kg]	Papp A→B [13] [×10⁻⁶ cm/s]	bioavailability [14] [%]	half-life [15] [h]	Ratio [16]	half-life [17] [h]	half-life [18] [h]
CCCC[C@H](NC(=O)OC(C)(C)Cc1ccccc1)C(=O)C(=O)N[C@H](C)c1ccccc1	0.63																	
CCCC[C@H](NC(=O)OC1(Cc2ccccc2)CCCC1)C(=O)C(=O)N[C@H](C)c1ccccc1	0.025	> 12	0.43	> 12	120	17	3	> 480										
CCCC[C@H](NC(=O)OCC1(Cc2ccccc2)CCCC1)C(=O)C(=O)N[C@H](C)c1ccccc1	0.026	> 5	0.011	> 5	85	0.4	2.2	> 190	> 190									
CCCC[C@H](NC(=O)OCC(C)(C)c1ccccc1)C(=O)C(=O)N[C@H](C)c1ccccc1	0.065	> 5	0.27	5	46	4.2	3	> 77										
CCCC[C@H](NC(=O)OC1(Cc2ccccc2)CCC1)C(=O)C(=O)N[C@H](C)c1ccccc1	0.71																	
CN(C)S(=O)(=O)NCCCC[C@H](NC(=O)OCC1(Cc2ccc(F)cc2)CCC1)C(=O)C(=O)NCc1cccnc1	0.04	> 5	0.13	> 5	> 120	3.2	> 5		> 120	30 (≈ 50.7 µM)	0.42	9.6	6.9	18		> 120		4.5
CCCC[C@H](NC(=O)OC1(Cc2ccccc2)CCCCC1)C(=O)C(=O)N[C@H](C)c1ccccc1	0.21																	
CCCC[C@H](NC(=O)OC(CC)(CC)Cc1ccccc1)C(=O)C(=O)N[C@H](C)c1ccccc1	0.15																	

Now those with a lower IC50 [1], led by results:

IC50 [1] [µM]	IC50 [2] [µM]	IC50 [3] [µM]	IC50 [4] [µM]	Ratio [5]	Ratio [6]	IC50 [7] [µM]	Ratio [8]	Ratio [9]	solubility thermodynamic [10] [µg/mL]	Vd [11] [L/kg]	clearance [12] [mL/min/kg]	Papp A→B [13] [×10⁻⁶ cm/s]	bioavailability [14] [%]	half-life [15] [h]	Ratio [16]	half-life [17] [h]	half-life [18] [h]	Compound
0.024									20 (≈ 34.9 µM)	1.6	33	14	15			1.57		CNC(=O)NCCCC[C@H](NC(=O)OCC1(Cc2c(F)cccc2F)CCC1)C(=O)C(=O)N[C@H](C)c1ccccc1
0.024	> 2	0.034	> 2	67	1.4	1.6	> 83											CCCC[C@H](NC(=O)OCC1(CCc2ccccc2)CCC1)C(=O)C(=O)N[C@H](C)c1ccccc1
0.017	> 2	0.017	> 2	> 120	1	1.3		> 120							76			CCCC[C@H](NC(=O)OCC1(CCCc2ccccc2)CCC1)C(=O)C(=O)N[C@H](C)c1ccccc1
0.013	> 5	0.027	> 5		2.1	0.68			90 (≈ 147 µM)	4.2	43	47	38	1.83				C[C@@H](NC(=O)C(=O)[C@H](CCCCNC(=O)N1CCOCC1)NC(=O)OCC1(Cc2ccc(F)cc2)CCC1)c1ccccc1
0.013	> 5	0.02	> 5	92	1.5	1.2	> 380	> 380										CCCC[C@H](NC(=O)OCC(C)(C)Cc1ccccc1)C(=O)C(=O)N[C@H](C)c1ccccc1
0.0085	> 5	0.02	3.6	150	2.4	1.3	> 580	> 580										CCCC[C@H](NC(=O)OCC1(Cc2ccccc2)CCC1)C(=O)C(=O)N[C@H](C)c1ccccc1
0.0076									300 (≈ 505 µM)	0.66	27	1.4	8.1	1.23				C[C@@H](NC(=O)C(=O)[C@H](CCCCNC(=O)N1CCOCC1)NC(=O)OCC1(Cc2ccncc2)CCC1)c1ccccc1
0.00083	> 0.5	0.0052	> 0.5	> 600	6.3	0.33		> 600	150 (≈ 337 µM)		45	15	31		390	2		CCCC[C@H](NC(=O)OCC1(Cc2ccc(F)cc2)CCC1)C(=O)C(=O)Nc1ccn[nH]1
